Test system: Mild to Moderate Osteoarthritis of the Knee
Test: Phase 2 study: WOMAC difficulty performing daily activities subscale score
Assay type: in vivo, human
Details: for Change of WOMAC Difficulty performing daily activities score from baseline (±SEM) / Percentage of improvement from baseline, WOMAC Difficulty performing daily activities score: all patients taken as active; for WOMAC Difficulty Performing Daily Activities Subscale Score, Avg.: Avg. of all patients; for WOMAC Difficulty Performing Daily Activities Subscale Score, Avg. / WOMAC Difficulty Performing Daily Activities Subscale Score: blinded; for WOMAC Difficulty Performing Daily Activities Subscale Score: individual patient
From the text: This is a Phase 2, multicenter, randomized, double blind (within dose), placebo controlled, parallel group, proof of concept, and dose range finding study to evaluate the efficacy, safety, and PK of 2-(diethylamino)ethyl 2-(4-isobutylphenyl)propionate hydrochloride spray in adult subjects with clinically symptomatic mild to moderate OA of the knee. For subjects with bilateral knee pain, both knees will be treated, but the most symptomatic knee (i.e., the most painful knee as measured by the Western Ontario and McMaster University Osteoarthritis Index [WOMAC® 3.1] pain subscale score at Screening) will be designated as the target knee for efficacy analyses. For subjects with unilateral knee pain, only the symptomatic (target) knee will be treated.
After a Screening Period of up to 3 weeks and radiographic evaluation of the target knee joint space, a subject will be randomly assigned to 1 of 3 treatment groups in a 1:1:1 ratio with a 2:1 ratio of active:placebo within each treatment group (ie, 2 subjects to active treatment and 1 subject to placebo): • Group A: 8.75 mg 2-(diethylamino)ethyl 2-(4-isobutylphenyl)propionate/knee (2 sprays/knee, one spray to the medial surface and one spray to the lateral surface of the knee), twice daily (BID, approximately every 12 hours; n=50) or placebo (2 sprays/knee), BID (approximately every 12 hours; n=25) for a total of 4 sprays per knee per day; • Group B: 17.5 mg 2-(diethylamino)ethyl 2-(4-isobutylphenyl)propionate/knee (4 sprays/knee, one spray to the medial surface and one spray to the lateral surface of the knee, and one spray to front and one spray to the back of the knee), BID (approximately every 12 hours; n=50) or placebo (4 sprays/knee), BID (approximately every 12 hours; n=25) for a total of 8 sprays per knee per day; • Group C: 35 mg 2-(diethylamino)ethyl 2-(4-isobutylphenyl)propionate/knee (8 sprays/knee, each spray is to be applied to a different non-overlapping area around the knee, and the areas are to be uniformly distributed around the knee), BID (approximately every 12 hours; n=50) or placebo (8 sprays/knee), BID (approximately every 12 hours; n=25) for a total of 16 sprays per knee per day.
The VAS version of the WOMAC will be used for the Primary and Secondary Efficacy Endpoints. Efficacy endpoints will be assessed at Screening and Baseline (Day 1) and at the Week 2, Week 4, Week 8, and Week 12/EOS visits.
3.9.2. Secondary Efficacy Endpoints: • 1. Change from Baseline in the WOMAC (VAS) pain subscale score for the target knee at 2, 4, and 8 weeks of treatment; • 2. Change from Baseline in the WOMAC (VAS) stiffness subscale scores for the target knee and WOMAC (VAS) functional ability subscale scores at 2, 4, 8, and 12 weeks of treatment; • 3. Change from Baseline in the overall WOMAC (VAS) score at 2, 4, 8, and 12 weeks of treatment.
The Secondary Efficacy Endpoints, change from Baseline in the WOMAC subscale scores for pain, stiffness, and functional ability, and overall WOMAC score at 2, 4, 8, and 12 weeks of treatment, will be analyzed using the same methods as for the Primary Efficacy Endpoint.
To determine this, we assumed that all patients received 2-(diethylamino)ethyl 2-(4-isobutylphenyl)propionate, active drug treatment (i.e. all patients who received 2-(diethylamino)ethyl 2-(4-isobutylphenyl)propionate or placebo treatment for 12 weeks or mixed up treatment during the 12-week treatment, as 2-(diethylamino)ethyl 2-(4-isobutylphenyl)propionate-treated). Based on this assumption, that is, to treat this trial as an open-label study and that all patients received active treatment, we conducted efficacy analysis using top-line efficacy datasets prepared by CRO and the re-analysis results are presented in the following tables (Tables 29-47). […] (William G. Bensen, Justus J. Fiechtner, James 1. McMillen, et. al. Treatment of Osteoarthritis with Celecoxib. Mayo Clin Proc, November 1999. Vol 74, 1095-1105.)

[1] = 35 mg/knee (BID), Week 8 (day 56)
[2] = 35 mg/knee (BID), Week 12 (day 84)
[3] = Middle Dose (4 spray/knee, 17.5 mg/knee) Cohort, Day 1
[4] = Middle Dose (4 spray/knee, 17.5 mg/knee) Cohort, Week 4

SMILES: CCN(CC)CCOC(=O)C(C)c1ccc(CC(C)C)cc1 (stereo not shown) [2-(diethylamino)ethyl 2-(4-isobutylphenyl)propionate]
- Percentage of improvement from baseline, WOMAC Difficulty performing daily activities score, adjusted by […] of the Testing Drug Amount [1]: −55.1%
- Change of WOMAC Difficulty performing daily activities score from baseline (±SEM) [1]: −18.4(±2.6) mm
- Percentage of improvement from baseline, WOMAC Difficulty performing daily activities score [1]: −32.1%
- Change of WOMAC Difficulty performing daily activities score from baseline (±SEM), adjusted by […] of the Testing Drug Amount [2]: −35.8(±4.8) mm
- Percentage of improvement from baseline, WOMAC Difficulty performing daily activities score, adjusted by […] of the Testing Drug Amount [2]: −62.4%
- Change of WOMAC Difficulty performing daily activities score from baseline (±SEM) [2]: −20.9(±2.8) mm
- Percentage of improvement from baseline, WOMAC Difficulty performing daily activities score [2]: −36.4%
- reduction of difficulty performing daily activities WOMAC from baseline to week 12 (5 patients on second batch active drug kits): 65.1-100%
- WOMAC Difficulty Performing Daily Activities Subscale Score, Avg. (35 mg/knee (8 spray/knee), Day 1): 57.4
- WOMAC Difficulty Performing Daily Activities Subscale Score, Avg. (35 mg/knee (8 spray/knee), Follow-up): 37.0
- WOMAC Difficulty Performing Daily Activities Subscale Score, Avg. (35 mg/knee (8 spray/knee), Week 2): 48.0
- WOMAC Difficulty Performing Daily Activities Subscale Score, Avg. (35 mg/knee (8 spray/knee), Week 4): 44.0
- WOMAC Difficulty Performing Daily Activities Subscale Score, Avg. (35 mg/knee (8 spray/knee), Week 8): 39.0
- WOMAC Difficulty Performing Daily Activities Subscale Score, Avg. (35 mg/knee (8 spray/knee), Week 12): 36.5
- WOMAC Difficulty Performing Daily Activities Subscale Score, Avg. [3]: 63.4
- WOMAC Difficulty Performing Daily Activities Subscale Score, Avg. (Middle Dose (4 spray/knee, 17.5 mg/knee) Cohort, Follow-up): 40.3
- WOMAC Difficulty Performing Daily Activities Subscale Score, Avg. (Middle Dose (4 spray/knee, 17.5 mg/knee) Cohort, Week 2): 48.1
- WOMAC Difficulty Performing Daily Activities Subscale Score, Avg. [4]: 42.3
- WOMAC Difficulty Performing Daily Activities Subscale Score, Avg. (Middle Dose (4 spray/knee, 17.5 mg/knee) Cohort, Week 8): 39.3
- WOMAC Difficulty Performing Daily Activities Subscale Score, Avg. (Middle Dose (4 spray/knee, 17.5 mg/knee) Cohort, Week 12): 36.5
- WOMAC Difficulty Performing Daily Activities Subscale, WOMAC VAS Score (Patient 1056, second batch active drug kits, Day 1): 39.6 mm
- WOMAC Difficulty Performing Daily Activities Subscale, WOMAC VAS Score (Patient 1056, second batch active drug kits, Follow Up): 11.6 mm
- WOMAC Difficulty Performing Daily Activities Subscale, WOMAC VAS Score (Patient 1056, second batch active drug kits, Week 2): 27.1 mm
- WOMAC Difficulty Performing Daily Activities Subscale, WOMAC VAS Score (Patient 1056, second batch active drug kits, Week 4): 24.4 mm
- WOMAC Difficulty Performing Daily Activities Subscale, WOMAC VAS Score (Patient 1056, second batch active drug kits, Week 8): 25.2 mm
- WOMAC Difficulty Performing Daily Activities Subscale, WOMAC VAS Score (Patient 1056, second batch active drug kits, Week 12): 18.1 mm
- WOMAC Difficulty Performing Daily Activities Subscale, WOMAC VAS Score (Patient 1064, second batch active drug kits, Day 1): 33.6 mm
- WOMAC Difficulty Performing Daily Activities Subscale, WOMAC VAS Score (Patient 1064, second batch active drug kits, Follow Up): 0.4 mm
- WOMAC Difficulty Performing Daily Activities Subscale, WOMAC VAS Score (Patient 1064, second batch active drug kits, Week 2): 24.4 mm
- WOMAC Difficulty Performing Daily Activities Subscale, WOMAC VAS Score (Patient 1064, second batch active drug kits, Week 4): 1.1 mm
- WOMAC Difficulty Performing Daily Activities Subscale, WOMAC VAS Score (Patient 1064, second batch active drug kits, Week 8): 0.5 mm
- WOMAC Difficulty Performing Daily Activities Subscale, WOMAC VAS Score (Patient 1064, second batch active drug kits, Week 12): 0.6 mm
- WOMAC Difficulty Performing Daily Activities Subscale, WOMAC VAS Score (Patient 1535, second batch active drug kits, Day 1): 51.6 mm
- WOMAC Difficulty Performing Daily Activities Subscale, WOMAC VAS Score (Patient 1535, second batch active drug kits, Follow Up): 0.2 mm
- WOMAC Difficulty Performing Daily Activities Subscale, WOMAC VAS Score (Patient 1535, second batch active drug kits, Week 2): 3.3 mm
- WOMAC Difficulty Performing Daily Activities Subscale, WOMAC VAS Score (Patient 1535, second batch active drug kits, Week 4): 2.8 mm
- WOMAC Difficulty Performing Daily Activities Subscale, WOMAC VAS Score (Patient 1535, second batch active drug kits, Week 8): 3.5 mm
- WOMAC Difficulty Performing Daily Activities Subscale, WOMAC VAS Score (Patient 1535, second batch active drug kits, Week 12): 0.2 mm
- WOMAC Difficulty Performing Daily Activities Subscale, WOMAC VAS Score (Patient 1539, second batch active drug kits, Day 1): 73.0 mm
- WOMAC Difficulty Performing Daily Activities Subscale, WOMAC VAS Score (Patient 1539, second batch active drug kits, Follow Up): 4.4 mm
- WOMAC Difficulty Performing Daily Activities Subscale, WOMAC VAS Score (Patient 1539, second batch active drug kits, Week 2): 47.8 mm
- WOMAC Difficulty Performing Daily Activities Subscale, WOMAC VAS Score (Patient 1539, second batch active drug kits, Week 4): 43 mm
- WOMAC Difficulty Performing Daily Activities Subscale, WOMAC VAS Score (Patient 1539, second batch active drug kits, Week 8): 5.5 mm
- WOMAC Difficulty Performing Daily Activities Subscale, WOMAC VAS Score (Patient 1539, second batch active drug kits, Week 12): 8.4 mm
- WOMAC Difficulty Performing Daily Activities Subscale, WOMAC VAS Score (Patient 9032, second batch active drug kits, Day 1): 16.4 mm
- WOMAC Difficulty Performing Daily Activities Subscale, WOMAC VAS Score (Patient 9032, second batch active drug kits, Follow Up): 2.8 mm
- WOMAC Difficulty Performing Daily Activities Subscale, WOMAC VAS Score (Patient 9032, second batch active drug kits, Week 2): 6.0 mm
- WOMAC Difficulty Performing Daily Activities Subscale, WOMAC VAS Score (Patient 9032, second batch active drug kits, Week 4): 7.1 mm
- WOMAC Difficulty Performing Daily Activities Subscale, WOMAC VAS Score (Patient 9032, second batch active drug kits, Week 8): 3.4 mm
- WOMAC Difficulty Performing Daily Activities Subscale, WOMAC VAS Score (Patient 9032, second batch active drug kits, Week 12): 2.5 mm
- WOMAC Difficulty Performing Daily Activities Subscale Score [3]: 64.5
- WOMAC Difficulty Performing Daily Activities Subscale Score [4]: 66.8
